Results taken from patent US11591353B2 (Mindset Pharma Inc., priority 2020, dated 2023).
Where two headings read alike, the source gives them in different places.

How the values were obtained:
[1] = target: human 5-HT2A (h5-HT2A) receptor (Homo sapiens (Human), UniProt P28223); test: FLIPR assay, human 5-HT2A receptor under agonist mode; format: cell-based; conditions: agonist mode, FLIPR calcium assay; read-out: h5-HT2A EC50
Description: • I. Assessment of the activated effect of exemplary compounds of Formula I targeting on human 5-HT2A (h5-HT2A) receptor under agonist mode: Compound Preparation and Assay Controls I.a. Reagent and Materials:
1. Culture the cells in cell culture medium (DMEM containing 10% FBS 1× penicillin-streptomycin 300 μg/ml G418 and 100 μg/ml hygromycin B) at 37° C., 5% (v/v) CO2.
2. One day before the assays, detach the cell using TrypLE™ Express and count cells using cell counter.
3. Seed 20000 cells/well in 30 μl/well culture medium to a 384-well cell plate and incubate the cells overnight at 37° C., 5% (v/v) CO2.
4. On the assay day, prepare 2× dye solution following the manual of the FLIPR® Calcium 6 Assay Kit: i. Dilute the dye with assay buffer (20 mM HEPES in 1×HBSS, PH7.4); ii. Add probenecid to the final concentration of 5 mM; iii. Vortex vigorously for 1-2 minutes.
5. Medium from cell plate by flicking the cell plate on towel papers.
6. Add 10 μl of assay buffer and 10 μl of 2× dye solution to each well of the cell plate.
7. Put the cell plate on plate shaker, agitate the plate at 600 rpm for 2 minutes. Incubate the plate at 37° C. for 2 hours followed by additional 15-minute incubation at 25° C.
8. Prepare 3× compound in assay buffer: a. Dilute reference compounds to required concentration with DMSO. Add the compounds to a 384-well compound plate; b. Perform serial dilutions; c. Add 10 mM test compounds to the compound plate, perform 3-fold serial dilutions. d. […] Add 20 μl/well assay buffer to the compound plate; f. Mix the plate on plate shaker for 2 mins;
i. The normalized fluorescence reading (RFU) is calculated as shown follow, while Fmax and Fmin stand for maximum and minimum of calcium signal during defined time window: RFU=Fmax−Fmin
ii. Calculate the percentage activation by using following equation: […]
iii. Calculate EC50 by fitting % activation against log of compound concentrations with Hill equation using XLfit.

human 5-HT2A receptor = human 5-HT2A receptor (Homo sapiens (Human), UniProt P28223); test: Radioligand binding assay on human 5-HT2A receptor ([3H]-ketanserin)
Description: i. Prepare the assay buffer following the table below;
ii. Preparation of 8 doses of reference and test compounds starting from 10 mM stock solution as requested by 5-fold serial dilutions with 100%;
iii. […] a. Add 50 μl/well of 0.5% (v/v) PEI to UniFilter-96 GF/B plates. Seal the plates and incubate at 4° C. for 3 hrs; b. After incubation, wash the plates 3 times with ice-cold wash buffer (50 mM Tris, pH7.4);
iv. Preparation of assay plates: a. Dilute cell membrane with assay buffer and add 330 μl/well to 96 round deep well plates to reach a concentration of 20 μg/well; b. […] Dilute [3H]-ketanserin with assay buffer to 5 nM (5× final concentration) and add 110 μl/well to 96 round deep well plates.
v. Centrifuge the plate at 1000 rpm for 30 secs and then agitate at 600 rpm, R.T. for 5 min.
vii. Stop the incubation by vacuum filtration onto GF/B filter plates followed by 4 times washing with ice-cold wash buffer (50 mM Tris, pH7.4).
ix. […]
For reference and exemplary test compounds of the application, the results are expressed as % Inhibition, using the normalization equation: N=100−100×(U−C2)/(C1−C2), where U is the unknown value, C1 is the average of high controls, and C2 is the average of low controls. The IC50 is determined by fitting percentage of inhibition as a function of compound concentrations with Hill equation using XLfit.

[2] = Liver microsomes stability, human; conditions: for Remaining Percentage (%) after 60 min Human: 2 μM, 0.5 mg/mL microsomes
Description: (§1) The objective of this study was to estimate in vitro metabolic stability of I-12 in pooled human, male rat and male mouse liver microsomes. The concentrations of parent compounds in reaction systems were evaluated by LC-MS/MS for estimating the stability in pooled human, male rat and male mouse liver microsomes. The in vitro intrinsic clearances of test compounds were determined as well.
(§2) A master solution in the “Incubation Plate” containing phosphate buffer, ultra-pure H2O, MgCl2 solution and liver microsomes was made according to Table-3. The mixture was pre-warmed at 37° C. water bath for 5 minutes.
(§3) 40 μL of 10 mM NADPH solution was added to each well. The final concentration of NADPH was 1 mM. The negative control samples were prepared by replacing NADPH with 40 μL of ultra-pure H2O. Samples were prepared in duplicate. Negative controls were prepared in singlet.
(§4) The reaction was started with the addition of 4 μL of 200 μM exemplary test compounds of the application or control compounds to each master solution to get the final concentration of 2 μM. This study was performed in duplicate.
(§5) Aliquots of 50 μL were taken from the reaction solution at 0, 15, 30, 45 and 60 minutes. The reaction solutions were stopped by the addition of 4 volumes of cold methanol with IS (100 nM alprazolam, 200 nM imipramine, 200 nM labetalol and 2 μM ketoprofen). Samples were centrifuged at 3,220 g for 40 minutes. Aliquot of 90 μL of the supernatant was mixed with 90 μL of ultra-pure H2O and then was used for LC-MS/MS analysis.
(§6) LC/MS analysis was performed for all samples from this study using a Shimadzu liquid chromatograph separation system equipped with degasser DGU-20A5R; solvent delivery unit LC-30AD; system controller SIL-30AC; column oven CTO-30A; CTC Analytics HTC PAL System. Mass spectrometric analysis was performed using an Triple Quad™ 5500 instrument.
(§7) All calculations were carried out using Microsoft Excel. Peak area ratios of test compound to internal standard (listed in the below table) were determined from extracted ion chromatograms.
(§8) All calculations were carried out using Microsoft Excel. Peak areas were determined from extracted ion chromatograms. The slope value, k, was determined by linear regression of the natural logarithm of the remaining percentage of the parent drug vs. incubation time curve.
(§9) Conversion of the in vitro t1/2 (min) into the in vitro intrinsic clearance (in vitro CLint, in μL/min/mg proteins) was done using the following equation (mean of duplicate determinations): […]

[3] = Liver microsomes stability, rat; conditions: for Remaining Percentage (%) after 60 min Rat: 2 μM, 0.5 mg/mL microsomes
Description: as §1, §2, §3, §4, §5, §6, §7, §8, §9

[4] = Liver microsomes stability, mouse; conditions: for Remaining Percentage (%) after 60 min Mouse: 2 μM, 0.5 mg/mL microsomes
Description: as §1, §2, §3, §4, §5, §6, §7, §8, §9

[5] = tobacco use disorder, cited from earlier work

| Structure (SMILES) | EC50 [1] [nM] | IC50 (human 5-HT2A receptor) [nM] | half-life at 2 μM ([2]; human, microsomes) [h] | microsomal CLint at 2 μM ([2]; human, microsomes) [µL/min/mg] | metabolic stability in liver microsomes (in words) ([2]; human, rat and mouse liver microsomes, 60 minute) | Remaining Percentage (%) after 60 min Human ([2]; with NADPH) [%] | half-life at 2 μM ([3]; male, rat, microsomes) [h] | microsomal CLint at 2 μM ([3]; male, rat, microsomes) [µL/min/mg] | Remaining Percentage (%) after 60 min Rat ([3]; with NADPH) [%] | half-life at 2 μM ([4]; male, mouse, microsomes) [h] | microsomal CLint at 2 μM ([4]; male, mouse, microsomes) [µL/min/mg] | Remaining Percentage (%) after 60 min Mouse ([4]; with NADPH) [%] | CLint (μL/min/mg protein) Human ([2]; with NADPH) [μL/min/mg protein] | t1/2 (min) Human ([2]; with NADPH) [min] | CLint (μL/min/mg protein) Rat ([3]; with NADPH) [μL/min/mg protein] | t1/2 (min) Rat ([3]; with NADPH) [min] | CLint (μL/min/mg protein) Mouse ([4]; with NADPH) [μL/min/mg protein] | t1/2 (min) Mouse ([4]; with NADPH) [min] | abstinence rate ([5]; 12 months follow-up) [%] | abstinence rate ([5]; six months follow-up) [%] |
| --- | --- | --- | --- | --- | --- | --- | --- | --- | --- | --- | --- | --- | --- | --- | --- | --- | --- | --- | --- | --- |
| [2H]C([2H])([2H])N(C([2H])([2H])[2H])C([2H])([2H])C([2H])([2H])c1c[nH]c2cccc(OCc3ccccc3)c12 [Compound I-46, 2-(4-(benzyloxy)-1H-indol-3-yl)-N,N-bis(methyl-d3)ethan-1-amine-1,1,2,2-d4] | 72.6 | 106 | 1.31 | 17.6 | rapidly metabolized | 58.94 | 0.593 | 39 | 108.23 | 0.862 | 26.8 | 44.75 | – | – | – | – | – | – | – | – |
| CN(C)CCc1c[nH]c2cccc(O)c12 [Psilocin, 4-hydroxy-N,N-dimethyltryptamine, reference compound] | – | – | – | – | – | 70.16 | – | – | 62.68 | – | – | 96.89 | 11.81 | 117.32 | 15.57 | 89.01 | 9.78 | 141.71 | – | – |
| CN(C)CCc1c[nH]c2cccc(OP(=O)(O)O)c12 [psilocybin, 4-phosphoryloxy-N,N-dimethyltrypatmine] | – | – | – | – | – | – | – | – | – | – | – | – | – | – | – | – | – | – | 67 | 80 |
